Measured values as given in patent publication US8211924B2, “1-(azolin-2-yl)amino-1,2-diphenylethane compounds for combating animal pests” (BASF SE, priority 2007, dated 2012).
Where two headings read alike, the source gives them in different places.

What was measured:
Assay in all cases: whole plant or invertebrate
Type in all cases: in vivo
[1] = system: Cotton aphid (Aphis gossypi); details: 120 h, cotton cotyledons dipped, determined after 5 days, read-out: mortality in comparison with untreated controls
Method: (§1) Cotton plants in the cotyledon stage (variety ‘Delta Pine’) are infested with approximately 100 laboratory-reared aphids by placing infested leaf sections on top of the test plants. The leaf sections are removed after 24 hours. The cotyledons of the intact plants are dipped into gradient solutions of the test compound. Aphid mortality on the treated plants, relative to mortality on check plants, is determined after 5 days.

[2] = system: Green Peach Aphid (Myzus persicae); details: 120 h, pepper leaves dipped, determined after 5 days, read-out: mortality in comparison with untreated controls
Method: as §1, with “Pepper” for “Cotton”, “2nd leaf-pair” for “cotyledon”, “‘California Wonder’)” for “‘Delta Pine’)”, “40” for “100”, “leaves” for “cotyledons”

Silverleaf Whitefly = details: Bemisia argentifolii; for mortality at 10 ppm: concentration 10 ppm; for mortality at 100 ppm: concentration 100 ppm
Method: Selected cotton plants were grown to the cotyledon state (one plant per pot). The cotyledons were dipped into the test solution to provide complete coverage of the foliage and placed in a well-vented area to dry. […] The tip, containing the collected insects, was then gently inserted into the soil containing the treated plant, allowing insects to crawl out of the tip to reach the foliage for feeding. The cups were covered with a re-usable screened lid (150 micron mesh polyester screen PeCap from Tetko Inc). Test plants were maintained in the holding room at about 25° C. and 20-40% relative humid-ity for 3 days avoiding direct exposure to the fluorescent light (24 hour photoperiod) to prevent trapping of heat inside the cup. Mortality was assessed 3 days after treatment of the plants.
by evaluation of the test shown in paragraph III.).

[3] = 72 h, 300 ppm, cotton cotyledons dipped, assessed 3 days after treatment, read-out: mortality in comparison with untreated controls
[4] = in Gossypium hirsutum, comparative example 1, test of paragraph III, read-out: mortality in comparison with untreated controls [%]
[5] = in Gossypium hirsutum, concentration 300 ppm, comparative example 1, test of paragraph III, read-out: mortality in comparison with untreated controls [%]

C#CCN1CCSC1=NC(Cc1cc(C)cc(C)c1)c1cccc(Cl)c1Cl (stereo not drawn) [Example 1, 1-(3-prop-2-ynyl-thiazolidin-2-ylidene)amino-1-(2,3-dichlorophenyl)-2-(3,5-dimethylphenyl)-ethane]
mortality at 300 ppm [1]: > 70%
mortality at 300 ppm [2]: > 70%
mortality at 300 ppm (Silverleaf Whitefly; [3]): > 70%
mortality at 10 ppm (Silverleaf Whitefly; [4]): 100%
mortality at 100 ppm (Silverleaf Whitefly; [4]): 100%
mortality at 300 ppm (Silverleaf Whitefly; [5]): 100%

Cc1cc(C)cc(CC(N=C2SCCN2C2=NCCS2)c2cccc3c2OC(F)(F)O3)c1 (stereo not drawn) [Example 3, 1-(4,5,4′,5′-tetrahydro-[2,3]-bithiazolyl-2′-ylidene)amino-1-(2,2-difluoro-benzo[1,3]dioxol-4-yl)-2-(3,5-dimethyl-phenyl)-ethane]
mortality at 300 ppm [1]: > 70%
mortality at 300 ppm [2]: > 70%
mortality at 300 ppm (Silverleaf Whitefly; [3]): > 70%

Cc1cc(C)cc(CC(NC2=NCCS2)c2cccc(Cl)c2Cl)c1 (stereo not drawn) [compound C.3, reference compound]
mortality at 10 ppm (Silverleaf Whitefly; [4]): 0%
mortality at 100 ppm (Silverleaf Whitefly; [4]): 100%
mortality at 300 ppm (Silverleaf Whitefly; [5]): 100%

Cc1cc(C)cc(CC(N=C2SCCN2C(=S)Nc2cccc(C(F)(F)F)c2)c2cccc(Cl)c2Cl)c1 (stereo not drawn) [Example 4, 2-[1-(2,3-dichlorophenyl)-2-(3,5-dimethylphenyl)ethylimino]-thiazolidine-3-carbothioic acid (3-trifluoromethylphenyl)amide]
mortality at 300 ppm [1]: > 70%
mortality at 300 ppm [2]: > 70%
mortality at 300 ppm (Silverleaf Whitefly; [3]): > 70%
mortality at 10 ppm (Silverleaf Whitefly; [4]): 50%
mortality at 100 ppm (Silverleaf Whitefly; [4]): 100%
mortality at 300 ppm (Silverleaf Whitefly; [5]): 100%

Cc1cc(C)cc(CC(N=C2SCCN2CCCOC2CCCCO2)c2cccc(Cl)c2Cl)c1 (stereo not drawn) [Example 2, 1-{3-[3-(tetrahydropyran-2-yloxy)propyl]thiazolidin-2-ylidene}amino-1-(2,3-dichlorophenyl)-2-(3,5-dimethylphenyl)-ethane]
mortality at 300 ppm [1]: > 70%
mortality at 300 ppm [2]: > 70%
mortality at 300 ppm (Silverleaf Whitefly; [3]): > 70%
